Results as given in patent US6683083B1, “Anticancer agents” (priority 1999, dated 2004).
Several values for one entry are separate records, joined by “and”; a condition that tells them apart may be missing. Equal values may be shown once.

Experiments:
fibroblasts NIH3T3 = experiment: Fibroblast cell-proliferation suppression (cell count); type: cell-based; settings: NIH3T3, 1×10^−6 M and 3×10^−6 M, cell number every 24 hours, FIG. 1
Method: FIG. 1 is a graph showing a cell-proliferation suppressing action against fibroblast of the compound represented by the above general formula [1] and the like shown in Example 2.
Nine plates were prepared for each of control and compound 1 groups each having a concentration of 1×10^−6 M and a compound 1 group having a concentration of 3×10^−6 M (total of 27 plates). The number 4.4×10^5 of fibroblasts NIH3T3 were added to each of the 27 plates, and D-MEM culture solution added with 10% FBS (fetal bovine serum) was added thereto. Each of the controls was incubated with added water corresponding to the added amount of compound 1. The number of cells in 3 plates of each of the groups was measured every 24 hours, and the measured numbers were averaged to provide an average cell number per plate.

[1] = test system: human non-small-cell lung cancer cell line PC-14; experiment: PC-14 subcutaneous implant in nude mice, tumor volume; type: in vivo, female nude mice BALB/c nu/nu; parameters: key: relative tumor volume, 1st day = 100; volume = minor axis^2 × major axis; settings: 1st day = 100
[2] = Entire body state and weight of tumor-bearing nude mice; type: in vivo, female nude mice BALB/c nu/nu; settings: 3 and 5 mg/kg by tail injection, once a day on 7th, 8th, 10th, 11th days after implantation
Method: For six subjects of the group number 1, the compound 1 was administered by injecting from each tail of the nude mice on each of the 7th, 8th, 10th and 11th days after the implantation, at 3 mg of the compound 1 per kg of weight once a day. For six subjects of the group number 2, the compound 1 was administered by injecting from each tail of the nude mice on each of the 7th, 8th, 10th and 11th days after the implantation, at 5 mg of the compound 1 per kg of weight once a day. The subjects of the group number […] to be the controls were a group having no administration of the compound 1, and neither administration nor treatment of the compound 1 was performed on the controls. […] However, in the result of each tumor volume of the mice, a specific difference was found between the subjects of the group numbers 1 to 3. The measurement of the tumor volumes is shown in the following Table 2, and the average of the tumor volumes in each of the groups is shown in Table 3. In Tables 2 and 3, each size of the tumor volumes after the 2nd day is represented on condition that the size of the tumor volume on the 1st day is 100.

various cancers = experiment: Overall carcinostatic effect, results of examples 1 to 3; settings: overall statement
[3] = test system: human non-small-cell lung cancer cell line PC-14; experiment: MTT assay, in vitro antitumor effect; type: cell-based; settings: PC-14, 96 hours incubation, average±error range of triple culture tests, read-out: amount of compound 1 required to achieve IC50
Description: (§1) (2) Verification of In Vitro Antitumor Effects on Various Human Cancer Cell Lines According to the MTT Assay Method.
(§2) Each single cell of a human non-small-cell lung cancer cell line PC-14, a human non-small-cell lung cancer cell line SBC-3, a human […] cell line MCF-7, a human non-small-cell ovarian cancer cell line SKOV3, a human leukemia cell line HL60 and a human colon cancer cell line WiDR was obtained by trypsinization or by using a cell scraper in RPMI 1640 medium to prepare a suspension containing 100 cells per 15 μl. The compound 1 as an anticancer agent was dissolved in dimethylsulfoxide and then the solution was added to the suspension to make the concentration of the compound fall within a range between 0.5 and 1 μM, and the resulting suspension was poured into a 96-perforated plate at 150 μl/well. This plate was maintained at a temperature of 37° C. under 5% of carbon dioxide and saturated vapor for 96 hours to incubate the suspension. After incubation, the incubated suspension was combined with 20 μl of MTT (3-(4,5-dimethylthiazol-2-yl)-2,5-diphenyltetrazoliumbromide) reagent dissolved in D-PBS (−) at a concentration of 5 mg/ml, and was further incubated at 37° C. for 4 hours. After the completion of incubation, the entire plate was centrifuged to discharge supernatant. Then, 200 μl of dimethyl sulfoxide was added to dissolve purple formazan which is created from yellow MTT by the action of dehydrogenase lying in mitochondria in the cancer cell, and the amount of the created formazan was determined by reading the absorbance at a wave length ranging from 562 to 630 nm with a multi-plate reader. Given that the average growth rate of a negative control is […] and the average growth rate of a positive control is 100%, a tumor-volume growth curve was plotted, and the concentration of compound 1 required for 50% of human cancer-cell proliferation suppression was calculated.
(§3) The values in Table 1 indicate each value of the concentration required for 50% of human cancer-cell proliferation suppression from the MTT assay in triple culture tests of independent cancer cells using compound 1 by average±error range (μM).

[4] = test system: SKOV3 (human ovarian cancer cell line); experiment: MTT assay, in vitro antitumor effect; type: cell-based; settings: SKOV3, 96 hours incubation, average±error range of triple culture tests, read-out: amount of compound 1 required to achieve IC50
Description: as §1, §2, §3

[5] = test system: MCF-7 (human mammary cancer cell line); experiment: MTT assay, in vitro antitumor effect; type: cell-based; settings: MCF-7, 96 hours incubation, average±error range of triple culture tests, read-out: amount of compound 1 required to achieve IC50
Description: as §1, §2, §3

[6] = test system: HL60 (human leukemia cell line); experiment: MTT assay, in vitro antitumor effect; type: cell-based; settings: HL60, 96 hours incubation, average±error range of triple culture tests, read-out: amount of compound 1 required to achieve IC50
Description: as §1, §2, §3

[7] = test system: WiDR (human colon cancer cell line); experiment: MTT assay, in vitro antitumor effect; type: cell-based; settings: 96 hours incubation, average±error range of triple culture tests, read-out: amount of compound 1 required to achieve IC50
Description: as §1, §2, §3

[8] = test system: SBC-3 (human small-cell lung cancer cell line); experiment: MTT assay, in vitro antitumor effect; type: cell-based; settings: SBC-3, 96 hours incubation, average±error range of triple culture tests, read-out: amount of compound 1 required to achieve IC50
Description: as §1, §2, §3

## OC(CN1CCN(C(c2ccccc2)c2ccccc2)CC1)CN1CCC(O)(c2ccc(Cl)cc2)CC1 (stereo not shown) [compound 1, 1-[1-4-(diphenylmethyl)piperazinyl]-3-[1-{4-(4-chlorophenyl)-4-hydroxy}piperidinyl]-2-propanol]
Fibroblasts NIH3T3
  cell-proliferation suppressing action against fibroblast: effectiveness to proliferative lesions
[1]; group No. 2 (3 mg/kg tail injection), 2 day
  tumor volume, average (6 mice): 89.79
[1]; group No. 2 (3 mg/kg tail injection), 2 day, 3 mg/kg
  tumor volume, individual mice: 45.35 and 120.51 and 139.67 and 73.21 and 73.29 and 66.68
[1]; group No. 2 (3 mg/kg tail injection), 3 day
  tumor volume, average (6 mice): 67.01
[1]; group No. 2 (3 mg/kg tail injection), 3 day, 3 mg/kg
  tumor volume, individual mice: 20.22 and 98.14 and 85.27 and 52.91 and 62.47 and 83.06
[1]; group No. 2 (3 mg/kg tail injection), 4 day
  tumor volume, average (6 mice): 68.38
[1]; group No. 2 (3 mg/kg tail injection), 4 day, 3 mg/kg
  tumor volume, individual mice: 46.17 and 80.18 and 105.01 and 42.19 and 31.02 and 85.73
[1]; group No. 2 (3 mg/kg tail injection), 5 day
  tumor volume, average (6 mice): 46.68
[1]; group No. 2 (3 mg/kg tail injection), 5 day, 3 mg/kg
  tumor volume, individual mice: 31.44 and 66.58 and 67.76 and 22.55 and 18.55 and 51.09
[1]; group No. 2 (3 mg/kg tail injection), 6 day
  tumor volume, average (6 mice): 47.73
[1]; group No. 2 (3 mg/kg tail injection), 6 day, 3 mg/kg
  tumor volume, individual mice: 30.93 and 122.90 and 55.16 and 0.00 and 10.11 and 51.30
[1]; group No. 2 (3 mg/kg tail injection), 7 day
  tumor volume, average (6 mice): 42.99
[1]; group No. 2 (3 mg/kg tail injection), 7 day, 3 mg/kg
  tumor volume, individual mice: 52.68 and 99.04 and 75.58 and 0.00 and 12.98 and 47.68
[1]; group No. 2 (3 mg/kg tail injection), 8 day
  tumor volume, average (6 mice): 58.33
[1]; group No. 2 (3 mg/kg tail injection), 8 day, 3 mg/kg
  tumor volume, individual mice: 56.49 and 127.45 and 130.56 and 0.00 and 4.97 and 30.49
[1]; group No. 3 (5 mg/kg tail injection), 2 day
  tumor volume, average (6 mice): 78.63
[1]; group No. 3 (5 mg/kg tail injection), 2 day, 5 mg/kg
  tumor volume, individual mice: 55.40 and 63.47 and 93.53 and 68.25 and 90.42 and 80.68
[1]; group No. 3 (5 mg/kg tail injection), 3 day
  tumor volume, average (6 mice): 75.11
[1]; group No. 3 (5 mg/kg tail injection), 3 day, 5 mg/kg
  tumor volume, individual mice: 58.27 and 43.51 and 72.22 and 113.73 and 70.23 and 92.68
[1]; group No. 3 (5 mg/kg tail injection), 4 day
  tumor volume, average (6 mice): 74.99
[1]; group No. 3 (5 mg/kg tail injection), 4 day, 5 mg/kg
  tumor volume, individual mice: 79.34 and 40.73 and 83.65 and 123.79 and 36.86 and 84.55
[1]; group No. 3 (5 mg/kg tail injection), 5 day
  tumor volume, average (6 mice): 60.45
[1]; group No. 3 (5 mg/kg tail injection), 5 day, 5 mg/kg
  tumor volume, individual mice: 47.44 and 40.65 and 62.95 and 103.32 and 28.95 and 79.20
[1]; group No. 3 (5 mg/kg tail injection), 6 day
  tumor volume, average (6 mice): 53.82
[1]; group No. 3 (5 mg/kg tail injection), 6 day, 5 mg/kg
  tumor volume, individual mice: 33.96 and 32.21 and 54.93 and 135.18 and 14.65 and 51.96
[1]; group No. 3 (5 mg/kg tail injection), 7 day
  tumor volume, average (6 mice): 64.86
[1]; group No. 3 (5 mg/kg tail injection), 7 day, 5 mg/kg
  tumor volume, individual mice: 34.07 and 36.27 and 86.76 and 129.59 and 17.36 and 85.12
[1]; group No. 3 (5 mg/kg tail injection), 8 day
  tumor volume, average (6 mice): 62.63
[1]; group No. 3 (5 mg/kg tail injection), 8 day, 5 mg/kg
  tumor volume, individual mice: 47.99 and 15.80 and 102.87 and 140.33 and 7.22 and 61.54
[2]
  entire body state and weight of the mice versus control: substantially no difference
Various cancers
  carcinostatic effect (results of examples 1 to 3): high carcinostatic effect
[3]
  IC50: 1020 ± 200 nM
[4]
  IC50: 850 ± 20 nM
[5]
  IC50: 600 ± 80 nM
[6]
  IC50: 1180 ± 50 nM
[7]
  IC50: 410 ± 30 nM
[8]
  IC50: 460 ± 30 nM
